In PubChem BioAssay (NCI):
“And” between values parts separate entries of the source, which are not always exact repeats. Equal values may be shown once.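 96-well plates; 48 h exposure; 5 concentrations. Endpoints by linear interpolation between flanking doses. Not reached: highest tested concentration assigned. GI50 is the concentration that inhibits growth by half. TGI: concentration producing complete growth inhibition.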

Columns and labels:
Assay in all cases: inhibition of tumour cell growth, NCI panel, 48 h
786-0 renal = test system: 786-0 renal
OVCAR-4 ovarian = test system: OVCAR-4 ovarian
HOP-92 NSCLC = test system: HOP-92 NSCLC
UACC-257 melanoma = test system: UACC-257 melanoma
HCC-2998 colon = test system: HCC-2998 colon
LOX IMVI melanoma = test system: LOX IMVI melanoma
EKVX NSCLC = test system: EKVX NSCLC
MDA-MB-435 = test system: MDA-MB-435
HS 578T breast = test system: HS 578T breast
T-47D breast = test system: T-47D breast

SMILES: CC(=O)NNc1nc(C)c(C(=O)NNC(=O)C(=O)Nc2c([N+](=O)[O-])ccc(C)c2C)s1
- TGI (786-0 renal): > 100 µM
- TGI (OVCAR-4 ovarian): > 100 µM
- TGI (HOP-92 NSCLC): > 100 µM
- TGI (UACC-257 melanoma): > 100 µM
- TGI (HCC-2998 colon): > 100 µM
- TGI (LOX IMVI melanoma): > 100 µM
- TGI (EKVX NSCLC): > 100 µM

SMILES: CCCCCCCCCCCCCCCC(=O)OCCOCCOCCOCCOCCOC(=O)CCCCCCCCCCCCCCC
- TGI (786-0 renal): > 100 µM
- TGI (OVCAR-4 ovarian): > 100 µM
- TGI (HOP-92 NSCLC): > 100 µM
- TGI (UACC-257 melanoma): > 100 µM
- TGI (HCC-2998 colon): > 100 µM
- TGI (LOX IMVI melanoma): > 100 µM
- TGI (EKVX NSCLC): > 100 µM

SMILES: O=C(N/C(=C\c1ccccc1O)c1nc2ccccc2[nH]1)c1ccccc1
- TGI (786-0 renal): > 100 µM
- TGI (OVCAR-4 ovarian): > 100 µM
- TGI (HOP-92 NSCLC): > 100 µM
- TGI (UACC-257 melanoma): > 100 µM
- TGI (HCC-2998 colon): > 100 µM
- TGI (LOX IMVI melanoma): > 100 µM
- TGI (EKVX NSCLC): > 100 µM

SMILES: NCCCNc1nc2ccccc2c2c(=O)c3cccc(Cl)c3sc12
- GI50 (786-0 renal): 1610 nM
- TGI (786-0 renal): 3.05 µM
- GI50 (HOP-92 NSCLC): 1190 nM
- TGI (HOP-92 NSCLC): 2.63 µM
- GI50 (HCC-2998 colon): 1480 nM
- TGI (HCC-2998 colon): 2.98 µM
- GI50 (EKVX NSCLC): 1430 nM
- TGI (EKVX NSCLC): 2.8 µM
- GI50 (MDA-MB-435): 1730 nM
- TGI (MDA-MB-435): 3.12 µM

SMILES: CCN1C(=O)N(CC)C2C1NN=c1s/c(=C3\C(=O)N(C4CCCC4)c4ccccc43)c(=O)n12 (stereo not drawn)
- GI50 (786-0 renal): 1710 nM
- TGI (786-0 renal): 4.86 µM
- GI50 (HOP-92 NSCLC): 1210 nM
- TGI (HOP-92 NSCLC): 6.4 µM
- GI50 (HCC-2998 colon): 1650 nM
- TGI (HCC-2998 colon): 5.19 µM
- GI50 (HS 578T breast): 1010 nM
- TGI (HS 578T breast): 8.77 µM
- GI50 (LOX IMVI melanoma): 1630 nM
- TGI (LOX IMVI melanoma): > 100 µM
- GI50 (EKVX NSCLC): 3360 nM
- TGI (EKVX NSCLC): > 100 µM
- GI50 (MDA-MB-435): 242 nM
- TGI (MDA-MB-435): 0.661 µM

SMILES: CC1C=CC(C(N)C(=O)O)O1 (stereo not drawn)
- TGI (786-0 renal): > 100 µM
- TGI (OVCAR-4 ovarian): > 100 µM
- TGI (HOP-92 NSCLC): > 100 µM
- TGI (HCC-2998 colon): > 100 µM
- TGI (LOX IMVI melanoma): > 100 µM
- TGI (EKVX NSCLC): > 100 µM

SMILES: CCCCNC(=S)OCCC(C)CCCC(C)C (stereo not drawn)
- TGI (786-0 renal): > 100 µM
- TGI (OVCAR-4 ovarian): > 100 µM
- TGI (UACC-257 melanoma): > 100 µM
- TGI (HCC-2998 colon): > 100 µM
- TGI (LOX IMVI melanoma): > 100 µM
- TGI (EKVX NSCLC): > 100 µM

SMILES: CC(=O)c1ccccc1NC(=O)C(=O)C(C(=O)c1ccccc1-c1ccccc1)C1OC(=O)c2ccccc21 (stereo not drawn)
- TGI (786-0 renal): 34.3 µM
- TGI (OVCAR-4 ovarian): > 100 µM
- TGI (UACC-257 melanoma): 32.3 µM
- TGI (HCC-2998 colon): 30.9 µM
- TGI (LOX IMVI melanoma): 37.7 µM
- TGI (EKVX NSCLC): 65 µM

SMILES: NS(=O)(=O)c1ccc(NC(=O)C2C(=O)C(=O)N(c3ccc(S(N)(=O)=O)cc3)C2=O)cc1 (stereo not drawn)
- TGI (786-0 renal): > 100 µM
- TGI (OVCAR-4 ovarian): > 100 µM
- TGI (HOP-92 NSCLC): > 100 µM
- TGI (UACC-257 melanoma): > 100 µM
- TGI (HCC-2998 colon): > 100 µM
- TGI (LOX IMVI melanoma): > 100 µM
- TGI (EKVX NSCLC): > 100 µM

SMILES: CCOC(=O)c1[nH]c2cc(OC)c(OC)cc2c1CN(C)C
- TGI (786-0 renal): > 100 µM
- TGI (OVCAR-4 ovarian): > 100 µM
- TGI (HOP-92 NSCLC): > 100 µM
- TGI (UACC-257 melanoma): > 100 µM
- TGI (HCC-2998 colon): > 100 µM
- TGI (LOX IMVI melanoma): > 100 µM
- TGI (EKVX NSCLC): > 100 µM

SMILES: COc1cc([N+](=O)[O-])c(S(=O)(=O)O)cc1-n1nc(C(=O)Nc2ccccc2)n[n+]1-c1cc(S(=O)(=O)[O-])c([N+](=O)[O-])cc1OC
- TGI (786-0 renal): > 100 µM
- TGI (OVCAR-4 ovarian): > 100 µM
- TGI (HOP-92 NSCLC): > 100 µM
- TGI (UACC-257 melanoma): > 100 µM
- TGI (HS 578T breast): > 100 µM
- TGI (LOX IMVI melanoma): > 100 µM
- TGI (EKVX NSCLC): > 100 µM
- TGI (MDA-MB-435): > 100 µM

SMILES: O=C1C=C2CCCC2C(C(=O)O)(C(=O)O)C1 (stereo not drawn)
- TGI (786-0 renal): > 100 µM
- TGI (OVCAR-4 ovarian): > 100 µM
- TGI (HOP-92 NSCLC): > 100 µM
- TGI (UACC-257 melanoma): > 100 µM
- TGI (HCC-2998 colon): > 100 µM
- TGI (LOX IMVI melanoma): > 100 µM
- TGI (EKVX NSCLC): > 100 µM

SMILES: Cc1ccc(N=C2N=C(N3CC(C)OC(C)C3)c3ccccc32)cc1 (stereo not drawn)
- TGI (786-0 renal): > 100 µM
- TGI (OVCAR-4 ovarian): 52.1 µM
- TGI (HOP-92 NSCLC): 26.5 µM
- TGI (UACC-257 melanoma): 74.6 µM
- TGI (HCC-2998 colon): 79.5 µM
- TGI (LOX IMVI melanoma): > 100 µM
- TGI (EKVX NSCLC): > 100 µM

SMILES: COc1c(I)c(OC)c2c(c1I)O[C@@H]1OCC[C@H]21
- TGI (786-0 renal): > 100 µM
- TGI (OVCAR-4 ovarian): 84.6 µM
- TGI (HOP-92 NSCLC): 67.1 µM
- TGI (UACC-257 melanoma): 67.1 µM
- TGI (HCC-2998 colon): 78.6 µM
- TGI (LOX IMVI melanoma): > 100 µM
- TGI (EKVX NSCLC): > 100 µM

SMILES: COc1ccc2c(c1)/C(=C\c1c(-c3cc(OC)ccc3OC)nc3sccn13)C(=O)N2
- GI50 (786-0 renal): 561 nM
- TGI (786-0 renal): 1.78 µM
- GI50 (OVCAR-4 ovarian): 1530 nM
- TGI (OVCAR-4 ovarian): 2.87 µM
- GI50 (HOP-92 NSCLC): 1760 nM
- TGI (HOP-92 NSCLC): 3.47 µM
- GI50 (UACC-257 melanoma): 2170 nM
- TGI (UACC-257 melanoma): 4.43 µM
- GI50 (T-47D breast): 1320 nM
- TGI (T-47D breast): 2740 nM
- GI50 (LOX IMVI melanoma): 5220 nM
- TGI (LOX IMVI melanoma): 21.5 µM
- GI50 (MDA-MB-435): 2050 nM and 14300 nM
- TGI (MDA-MB-435): 4.6 µM and 39 µM

SMILES: Cc1ccc(/C=C/C(=O)c2sc(-n3nc(-c4ccccc4)cc3-c3ccccc3)nc2C)cc1
- TGI (786-0 renal): > 100 µM
- TGI (HOP-92 NSCLC): > 100 µM
- TGI (UACC-257 melanoma): > 100 µM
- TGI (HCC-2998 colon): > 100 µM
- TGI (LOX IMVI melanoma): > 100 µM
- TGI (EKVX NSCLC): > 100 µM

SMILES: COc1cc2ncnc(Nc3ccc(Oc4ccnc(C)c4)c(C)c3)c2cc1NC(=O)CC1CCSS1 (stereo not drawn)
- GI50 (786-0 renal): > 50000 nM
- TGI (786-0 renal): > 50 µM
- GI50 (OVCAR-4 ovarian): 1540 nM
- TGI (OVCAR-4 ovarian): 24.3 µM
- GI50 (HOP-92 NSCLC): 3750 nM
- TGI (HOP-92 NSCLC): 23.1 µM
- GI50 (UACC-257 melanoma): 1020 nM
- TGI (UACC-257 melanoma): 2.35 µM
- GI50 (HS 578T breast): 1120 nM
- TGI (HS 578T breast): 3.21 µM
- GI50 (LOX IMVI melanoma): 2620 nM
- TGI (LOX IMVI melanoma): > 50 µM
- GI50 (EKVX NSCLC): 1360 nM
- TGI (EKVX NSCLC): > 50 µM
- GI50 (MDA-MB-435): 976 nM
- TGI (MDA-MB-435): 2.48 µM

SMILES: CCc1cc2c(O)c(c1)Cc1cc(CC)cc(c1O)Cc1cc(CC)cc(c1O)Cc1cc(CC)cc(c1O)Cc1cc(CC)cc(c1O)Cc1cc(CC)cc(c1O)Cc1cc(CC)cc(c1O)C2
- TGI (786-0 renal): > 100 µM
- TGI (OVCAR-4 ovarian): > 100 µM
- TGI (HOP-92 NSCLC): > 100 µM
- TGI (UACC-257 melanoma): > 100 µM
- TGI (HCC-2998 colon): > 100 µM
- TGI (EKVX NSCLC): > 100 µM
